Laboratory results reported in US8445492B2, “Method for inhibiting growth of cancer cells and cell telomere and diseases of cell proliferation by using heteroannelated anthraquinone derivative compounds” (National Defense Medical Center, priority 2008, dated 2013).
Like-named read-outs stand apart in the source and are kept apart here.

Experiments:
HL-60(TB) [1] = test system: HL-60(TB)
RPMI-8226 [2] = assay: NCI DTP in-vitro dose response, Leukemia
K-562 [3] = test system: K-562
MOLT-4 [4] = test system: MOLT-4
CCRF-CEM [5] = test system: CCRF-CEM
CCRF-CEM [6] = assay: NCI DTP in-vitro dose response, Leukemia
RPMI-8226 [7] = test system: RPMI-8226
HL-60(TB) [8] = assay: NCI DTP in-vitro dose response, Leukemia
K-562 [9] = assay: NCI DTP in-vitro dose response, Leukemia
MOLT-4 [10] = assay: NCI DTP in-vitro dose response, Leukemia
A549/ATCC [11] = test system: A549/ATCC
EKVX [12] = test system: EKVX
NCI-H23 [13] = test system: NCI-H23
NCI-H23 [14] = test system: NCI-H23; remark: listed apart in the source
HOP-92 [15] = test system: HOP-92
NCI-H522 [16] = test system: NCI-H522
NCI-H226 [17] = test system: NCI-H226
NCI-H460 [18] = test system: NCI-H460
HOP-62 [19] = test system: HOP-62
HOP-62 [20] = test system: HOP-62; remark: listed apart in the source
NCI-H226 [21] = test system: NCI-H226; remark: listed apart in the source
NCI-H460 [22] = test system: NCI-H460; remark: listed apart in the source
EKVX [23] = test system: EKVX; remark: listed apart in the source
A549/ATCC [24] = test system: A549/ATCC; remark: listed apart in the source
HOP-92 [25] = test system: HOP-92; remark: listed apart in the source
NCI-H522 [26] = test system: NCI-H522; remark: listed apart in the source

Structure (SMILES): O=C1c2ccccc2C(=O)c2c1ccc1nccnc21 [TABLE 5-1]
- GI50 (HL-60(TB) [1]): 0.677 µM
- TGI (HL-60(TB) [1]): 1.15E−5
- Percent Growth (HL-60(TB) [1]; Log10 Concentration −4.0): −54%
- Percent Growth (HL-60(TB) [1]; Log10 Concentration −5.0): 3%
- Percent Growth (HL-60(TB) [1]; Log10 Concentration −6.0): 47%
- Percent Growth (HL-60(TB) [1]; Log10 Concentration −7.0): 67%
- Percent Growth (HL-60(TB) [1]; Log10 Concentration −8.0): 83%
- CC50 (RPMI-8226 [2]): > 100 µM
- GI50 (K-562 [3]): 0.0683 µM
- TGI (K-562 [3]): >1.00E−4
- Percent Growth (K-562 [3]; Log10 Concentration −4.0): 10%
- Percent Growth (K-562 [3]; Log10 Concentration −5.0): 17%
- Percent Growth (K-562 [3]; Log10 Concentration −6.0): 30%
- Percent Growth (K-562 [3]; Log10 Concentration −7.0): 41%
- Percent Growth (K-562 [3]; Log10 Concentration −8.0): 94%
- GI50 (MOLT-4 [4]): 3.65 µM
- TGI (MOLT-4 [4]): >1.00E−4
- Percent Growth (MOLT-4 [4]; Log10 Concentration −4.0): 4%
- Percent Growth (MOLT-4 [4]; Log10 Concentration −5.0): 33%
- Percent Growth (MOLT-4 [4]; Log10 Concentration −6.0): 72%
- Percent Growth (MOLT-4 [4]; Log10 Concentration −7.0): 81%
- Percent Growth (MOLT-4 [4]; Log10 Concentration −8.0): 89%
- GI50 (CCRF-CEM [5]): 2.46 µM
- TGI (CCRF-CEM [5]): >1.00E−4
- Percent Growth (CCRF-CEM [5]; Log10 Concentration −4.0): 20%
- Percent Growth (CCRF-CEM [5]; Log10 Concentration −5.0): 22%
- Percent Growth (CCRF-CEM [5]; Log10 Concentration −6.0): 68%
- Percent Growth (CCRF-CEM [5]; Log10 Concentration −7.0): 91%
- Percent Growth (CCRF-CEM [5]; Log10 Concentration −8.0): 90%
- CC50 (CCRF-CEM [6]): > 100 µM
- GI50 (RPMI-8226 [7]): 1.61 µM
- TGI (RPMI-8226 [7]): >1.00E−4
- Percent Growth (RPMI-8226 [7]; Log10 Concentration −4.0): 12%
- Percent Growth (RPMI-8226 [7]; Log10 Concentration −5.0): 30%
- Percent Growth (RPMI-8226 [7]; Log10 Concentration −6.0): 55%
- Percent Growth (RPMI-8226 [7]; Log10 Concentration −7.0): 81%
- Percent Growth (RPMI-8226 [7]; Log10 Concentration −8.0): 90%
- CC50 (HL-60(TB) [8]): 83.7 µM
- CC50 (K-562 [9]): > 100 µM
- CC50 (MOLT-4 [10]): > 100 µM

Structure (SMILES): O=C1c2ccccc2C(=O)c2c1ccc1nccnc21 [TABLE 5-2]
- CC50 (A549/ATCC [11]): > 100 µM
- CC50 (EKVX [12]): > 100 µM
- GI50 (NCI-H23 [13]): 12 µM
- TGI (NCI-H23 [13]): 7.03E−5
- Percent Growth (NCI-H23 [13]; Log10 Concentration −4.0): −10%
- Percent Growth (NCI-H23 [13]; Log10 Concentration −5.0): 55%
- Percent Growth (NCI-H23 [13]; Log10 Concentration −6.0): 84%
- Percent Growth (NCI-H23 [13]; Log10 Concentration −7.0): 87%
- Percent Growth (NCI-H23 [13]; Log10 Concentration −8.0): 92%
- CC50 (NCI-H23 [14]): > 100 µM
- CC50 (HOP-92 [15]): > 100 µM
- CC50 (NCI-H522 [16]): > 100 µM
- CC50 (NCI-H226 [17]): > 100 µM
- CC50 (NCI-H460 [18]): > 100 µM
- GI50 (HOP-62 [19]): 5.64 µM
- TGI (HOP-62 [19]): >1.00E−4
- Percent Growth (HOP-62 [19]; Log10 Concentration −4.0): 3%
- Percent Growth (HOP-62 [19]; Log10 Concentration −5.0): 40%
- Percent Growth (HOP-62 [19]; Log10 Concentration −6.0): 81%
- Percent Growth (HOP-62 [19]; Log10 Concentration −7.0): 82%
- Percent Growth (HOP-62 [19]; Log10 Concentration −8.0): 92%
- CC50 (HOP-62 [20]): > 100 µM
- GI50 (NCI-H226 [21]): 16.6 µM
- TGI (NCI-H226 [21]): 9.52E−5
- Percent Growth (NCI-H226 [21]; Log10 Concentration −4.0): −1%
- Percent Growth (NCI-H226 [21]; Log10 Concentration −5.0): 64%
- Percent Growth (NCI-H226 [21]; Log10 Concentration −6.0): 73%
- Percent Growth (NCI-H226 [21]; Log10 Concentration −7.0): 81%
- Percent Growth (NCI-H226 [21]; Log10 Concentration −8.0): 86%
- GI50 (NCI-H460 [22]): 2.01 µM
- TGI (NCI-H460 [22]): 2.69E−5
- Percent Growth (NCI-H460 [22]; Log10 Concentration −4.0): −22%
- Percent Growth (NCI-H460 [22]; Log10 Concentration −5.0): 17%
- Percent Growth (NCI-H460 [22]; Log10 Concentration −6.0): 65%
- Percent Growth (NCI-H460 [22]; Log10 Concentration −7.0): 95%
- Percent Growth (NCI-H460 [22]; Log10 Concentration −8.0): 98%
- GI50 (EKVX [23]): 3.45 µM
- TGI (EKVX [23]): 7.21E−5
- Percent Growth (EKVX [23]; Log10 Concentration −4.0): −4%
- Percent Growth (EKVX [23]; Log10 Concentration −5.0): 25%
- Percent Growth (EKVX [23]; Log10 Concentration −6.0): 79%
- Percent Growth (EKVX [23]; Log10 Concentration −7.0): 89%
- Percent Growth (EKVX [23]; Log10 Concentration −8.0): 101%
- GI50 (A549/ATCC [24]): 4.53 µM
- TGI (A549/ATCC [24]): >1.00E−4
- Percent Growth (A549/ATCC [24]; Log10 Concentration −4.0): 3%
- Percent Growth (A549/ATCC [24]; Log10 Concentration −5.0): 36%
- Percent Growth (A549/ATCC [24]; Log10 Concentration −6.0): 77%
- Percent Growth (A549/ATCC [24]; Log10 Concentration −7.0): 95%
- Percent Growth (A549/ATCC [24]; Log10 Concentration −8.0): 93%
- GI50 (HOP-92 [25]): 22.5 µM
- TGI (HOP-92 [25]): >1.00E−4
- Percent Growth (HOP-92 [25]; Log10 Concentration −4.0): 8%
- Percent Growth (HOP-92 [25]; Log10 Concentration −5.0): 73%
- Percent Growth (HOP-92 [25]; Log10 Concentration −6.0): 78%
- Percent Growth (HOP-92 [25]; Log10 Concentration −7.0): 83%
- Percent Growth (HOP-92 [25]; Log10 Concentration −8.0): 95%
- GI50 (NCI-H522 [26]): 4.64 µM
- TGI (NCI-H522 [26]): 3.25E−5
- Percent Growth (NCI-H522 [26]; Log10 Concentration −4.0): −33%
- Percent Growth (NCI-H522 [26]; Log10 Concentration −5.0): 35%
- Percent Growth (NCI-H522 [26]; Log10 Concentration −6.0): 81%
- Percent Growth (NCI-H522 [26]; Log10 Concentration −7.0): 86%
- Percent Growth (NCI-H522 [26]; Log10 Concentration −8.0): 89%
